Data taken from US20220233534A1, “CERDULATINIB-CONTAINING TOPICAL SKIN PHARMACEUTICAL COMPOSITIONS AND USES THEREOF” (DERMAVANT SCIENCES GMBH, priority 2019, published 2022).

Columns and labels:
[1] = system: DNCB-induced atopic dermatitis NC/Nga mouse; test: DNCB-induced atopic dermatitis in the NC/Nga mouse model; assay type: in vivo
Experimental: Atopic dermatitis was induced by repeated application of DNCB (1-chloro-2,4-dinitrobenzene) to the dorsal skin of the ears/back. […] Lesions were evaluated on days 2, 8, 11, and 14.
Macroscopic lesion severity scores are depicted in FIG. 7. Macroscopic skin lesion severity was measured on the indicated Study Days by assessing (0-3 scale) the presence of erythema, edema, excoriation/erosion, and dryness scaling on the ears, neck, and dorsal skin of animals.
Serum IgE levels are depicted in FIG. 8. Serum samples obtained on Study Day 15 were utilized for IgE quantitation. Select cytokine data from the study are depicted in FIG. 9. Skin samples harvested on Day 15 were analyzed by LUMINEX for inflammatory cytokine levels for IL-4, IL-5, IL-13, and IL-31.

vitiligo mouse model = test: Study DMVT-502-9025 mouse model of vitiligo; assay type: in vivo
Experimental: The model mimics human vitiligo by inducing epidermal depigmentation with autoreactive CD8+ T-cell accumulation. A schematic of the model is depicted in FIG. 15.
Ten mice were used in the study: three REX3 reporter mice for cytokines CXCL9 and CXCL10 and seven SCF (stem cell factor) mice. The vitiligo study timeline is depicted in FIG. 16. The following assessments were performed during the study:
Blinded scoring of ears, tail, nose, and ventral feet (0-5 scale)
Epidermal, dermal, spleen, and lymph node PMEL (premelanosome protein) cell count
Epidermal/dermal APC (antigen-presenting cell) count
Keratinocyte Cytokine Expression

[2] = 60 mg/kg once daily oral, 5 weeks
[3] = 30 and 60 mg/kg once daily oral, 5 weeks

## CCS(=O)(=O)N1CCN(c2ccc(Nc3ncc(C(N)=O)c(NC4CC4)n3)cc2)CC1 [DMVT-502, Cerdulatinib]
[1]; topical therapy, Study Day 15
  serum IgE levels: trends towards reduction
[1]; topical treatment, Day 15, LUMINEX
  pro-inflammatory cytokine levels in skin (IL-4, IL-5, IL-13, IL-31): limited suppression
Vitiligo mouse model; [2]
  APCs in the dermal skin compartment and Langerhans cells in the epidermal skin compartment compared with vehicle: significantly reduced
  CD3+, CD8− T-cell counts in the spleen: significantly reduced
  PMEL T-cell counts in dermis and blood: significantly reduced
  host T-cell counts in blood: significantly decreased
Vitiligo mouse model; [3]
  APC counts in lymph nodes and the spleen compared with vehicle: significantly reduced
  PMEL T-cell counts in the epidermis and dermis compared with vehicle: significantly reduced
  host-derived total T-cell counts in the spleen: significantly reduced
  vitiligo scores compared with vehicle controls: significantly decreased
Vitiligo mouse model; 30 or 60 mg/kg once daily oral, 5 weeks
  lymph node or spleen PMEL T cells: no significant differences
Vitiligo mouse model; SCF/REX3 mice
  CXCL9, CXCL10, and dual expression in keratinocytes compared with vehicle: trends towards reduced
Vitiligo mouse model; once daily oral, 5 weeks
  CXCL9 and CXCL10 expression in lymph node APCs: Reduced
  total keratinocyte counts between treatment groups: No decrease
